Like-named read-outs stand apart in the source and are kept apart here.
How the values were obtained:
MCL-1 = MCL-1 (Homo sapiens (Human), UniProt Q07820); experiment: Cell free Mcl-1:Bim affinity assay (fluorescence polarization competition); format: binding; settings: 15 nM MCL-1, 5 nM FITC-Bim, 1 hour at room temperature, read-out: BIM_Ki
Method in brief: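 Compounds competed with FITC-labelled Bim peptide (5 nM) for MCL-1 (15 nM) in HEPES/NaCl buffer with 1% DMSO, 1 h at room temperature. Fluorescence polarization (535 nm emission) gave % inhibition versus DMSO and positive controls; IC50 from 10-point curves, converted to Ki by the Nikolovska-Coleska equation.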

H929 cells = experiment: Cell viability assay (H929 10 FBS); format: cell-based; settings: Homo sapiens, NCI-H929, 24 hours, read-out: H929_10FBS IC50
Method in brief: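 H929 cells, 4000/well, in RPMI 1640 with 10% FBS, sodium pyruvate, HEPES and glucose were exposed to compound 24 h at 37 °C. Viability read as luminescence after 30-60 min at RT with CellTiter-Glo or ATPlite 1 Step.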

Sequence of MCL-1 (Q07820 whole entry): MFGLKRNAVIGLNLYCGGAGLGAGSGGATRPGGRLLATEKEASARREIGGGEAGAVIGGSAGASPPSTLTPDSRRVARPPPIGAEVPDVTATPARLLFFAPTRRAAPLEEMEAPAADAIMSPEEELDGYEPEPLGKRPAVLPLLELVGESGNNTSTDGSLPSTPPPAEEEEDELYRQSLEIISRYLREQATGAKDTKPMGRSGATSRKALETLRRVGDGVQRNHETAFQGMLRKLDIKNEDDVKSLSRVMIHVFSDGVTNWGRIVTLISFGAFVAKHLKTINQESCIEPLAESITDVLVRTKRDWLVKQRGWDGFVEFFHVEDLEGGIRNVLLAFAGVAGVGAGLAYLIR

| Compound | Ki (MCL-1; class symbols) [nM] | IC50 (H929 cells) [nM] | Ki (MCL-1; numeric values) [nM] |
| --- | --- | --- | --- |
| CO[C@@H]1/C=C/CC[C@@H](CO)C(=O)NS(=O)(=O)c2ccc3c(c2)N(C[C@@H]2CC[C@H]21)C[C@@]1(CCCc2cc(Cl)ccc21)CO3 [Example 95, (3R,6R,7R,8E,12S,22S)-6′-Chloro-12-(hydroxymethyl)-7-methoxy-15,15-dioxo-spiro[20-oxa-15-thia-1,14-diazatetracyclo[14.7.2.03,6.019,24]pentacosa-8,16,18,24-tetraene-22,1′-tetralin]-13-one] | 1 to 100 | > 1000 |  |
| CO[C@@H]1/C=C/COC2(CCC2)C(=O)NS(=O)(=O)c2ccc3c(c2)N(C[C@@H]2CC[C@H]21)C[C@@]1(CCCc2cc(Cl)ccc21)CO3 [Example 31, (3R,6R,7R,8E,22S)-6′-Chloro-7-methoxy-12,12-(1,3-propylene)-15,15-dioxo-spiro[11,20-dioxa-15-thia-1,14-diazatetracyclo[14.7.2.03,6.019,24]pentacosa[8,16(25),17,19(24)]tetraene-22,1′-tetralin]-13-one] | 1 to 100 | > 1000 |  |
| CO[C@@H]1/C=C/C[C@H](C)CC(=O)NS(=O)(=O)c2ccc3c(c2)N(C[C@@H]2CC[C@H]21)C[C@@]1(CCCc2cc(Cl)ccc21)CO3 [Example 71, (3R,6R,7R,8E,11S,22S)-6′-Chloro-7-methoxy-11-methyl-15,15-dioxo-spiro[20-oxa-15-thia-1,14-diazatetracyclo[14.7.2.03,6.019,24]pentacosa-8,16(25),17,19(24)-tetraene-22,1′-tetralin]-13-one] | 1 to 100 | > 1000 |  |
| CC1/C=C/[C@H](OC(=O)N(C)C)[C@@H]2CC[C@H]2CN2C[C@@]3(CCCc4cc(Cl)ccc43)COc3ccc(cc32)S(=O)(=O)NC(=O)C(C)(C)O1 (stereo partly drawn) [Example 292, [(3R,6R,7S,8E,22S)-6′-Chloro-10,12,12-trimethyl-13,15,15-trioxo-spiro[11,20-dioxa-15-thia-1,14-diazatetracyclo[14.7.2.03,6.019,24]pentacosa-8,16,18,24-tetraene-22,1′-tetralin]-7-yl] N,N-dimethylcarbamate] | < 1 | < 500 |  |
| CN(C)C[C@@H]1CCCN1C(=O)O[C@H]1/C=C/COC(C)(C)C(=O)NS(=O)(=O)c2ccc3c(c2)N(C[C@@H]2CC[C@H]21)C[C@@]1(CCCc2cc(Cl)ccc21)CO3 [Example 168, [(3R,6R,7S,8E,22S)-6′-Chloro-12,12-dimethyl-13,15,15-trioxo-spiro[11,20-dioxa-15-thia-1,14-diazatetracyclo[14.7.2.03,6.019,24]pentacosa-8,16,18,24-tetraene-22,1′-tetralin]-7-yl] (2S)-2-[(dimethylamino)methyl]pyrrolidine-1-carboxylate] | < 1 | < 500 |  |
| CONC(=O)O[C@H]1/C=C/COC(C)(C)C(=O)NS(=O)(=O)c2ccc3c(c2)N(C[C@@H]2CC[C@H]21)C[C@@]1(CCCc2cc(Cl)ccc21)CO3 [Example 167, [(3R,6R,7S,8E,22S)-6′-Chloro-12,12-dimethyl-13,15,15-trioxo-spiro[11,20-dioxa-15-thia-1,14-diazatetracyclo[14.7.2.03,6.019,24]pentacosa-8,16,18,24-tetraene-22,1′-tetralin]-7-yl] N-methoxycarbamate] | < 1 | < 500 |  |
| CCO[C@@H]1CCN(C(=O)O[C@H]2/C=C/COC(C)(C)C(=O)NS(=O)(=O)c3ccc4c(c3)N(C[C@@H]3CC[C@H]32)C[C@@]2(CCCc3cc(Cl)ccc32)CO4)C1 [Example 59, [(3R,6R,7S,8E,22S)-6′-Chloro-12,12-dimethyl-13,15,15-trioxo-spiro[11,20-dioxa-15-thia-1,14-diazatetracyclo[14.7.2.03,6.019,24]pentacosa-8,16,18,24-tetraene-22,1′-tetralin]-7-yl] (3R)-3-ethoxypyrrolidine-1-carboxylate] | < 1 | < 500 |  |
| CO[C@@H]1/C=C/C[C@H](C)[C@@H](CC(=O)N(C)C)C(=O)NS(=O)(=O)c2ccc3c(c2)N(C[C@@H]2CC[C@H]21)C[C@@]1(CCCc2cc(Cl)ccc21)CO3 [Example 91, 2-[(3R,6R,7R,8E,11S,12R,22S)-6′-Chloro-7-methoxy-11-methyl-13,15,15-trioxo-spiro[20-oxa-15-thia-1,14-diazatetracyclo[14.7.2.03,6.019,24]pentacosa-8,16,18,24-tetraene-22,1′-tetralin]-12-yl]-N,N-dimethyl-acetamide] | 1 to 100 | > 1000 |  |
| CO[C@@H]1/C=C/CN[C@@H](C)C(=O)NS(=O)(=O)c2ccc3c(c2)N(C[C@@H]2CC[C@H]21)C[C@@]1(CCCc2cc(Cl)ccc21)CO3 [Example 117, (3R,6R,7R,8E,12S,22S)-6′-Chloro-7-methoxy-12-methyl-15,15-dioxo-spiro[20-oxa-15-thia-1,11,14-triazatetracyclo[14.7.2.03,6.019,24]pentacosa-8,16(25),17,19(24)-tetraene-22,1′-tetralin]-13-one] | 1 to 100 | > 1000 |  |
| CC1(C)OC/C=C/[C@H](OCC(=O)N2CCC2)[C@@H]2CC[C@H]2CN2C[C@@]3(CCCc4cc(Cl)ccc43)COc3ccc(cc32)S(=O)(=O)NC1=O [Example 279, (3R,6R,7S,8E,22S)-7-[2-(Azetidin-1-yl)-2-oxo-ethoxy]-6′-chloro-12,12-dimethyl-15,15-dioxo-spiro[11,20-dioxa-15-thia-1,14-diazatetracyclo[14.7.2.03,6.019,24]pentacosa-8,16,18,24-tetraene-22,1′-tetralin]-13-one] | < 1 | < 500 |  |
| CO[C@@H]1/C=C\CN[C@H](C)C(=O)NS(=O)(=O)c2ccc3c(c2)N(C[C@@H]2CC[C@H]21)C[C@@]1(CCCc2cc(Cl)ccc21)CO3 [Example 122, (3R,6R,7R,8Z,12R,22S)-6′-Chloro-7-methoxy-12-methyl-15,15-dioxo-spiro[20-oxa-15-thia-1,11,14-triazatetracyclo[14.7.2.03,6.019,24]pentacosa-8,16(25),17,19(24)-tetraene-22,1′-tetralin]-13-one] | 1 to 100 | > 1000 |  |
| CN(C(=O)O[C@H]1/C=C/CN(C)C(C)(C)C(=O)NS(=O)(=O)c2ccc3c(c2)N(C[C@@H]2CC[C@H]21)C[C@@]1(CCCc2cc(Cl)ccc21)CO3)[C@H]1CCOC1 [Example 226, [(3R,6R,7S,8E,22S)-6′-Chloro-11,12,12-trimethyl-13,15,15-trioxo-spiro[20-oxa-15-thia-1,11,14-triazatetracyclo[14.7.2.03,6.019,24]pentacosa-8,16,18,24-tetraene-22,1′-tetralin]-7-yl] N-methyl-N-[(3S)-tetrahydrofuran-3-yl]carbamate] | < 1 | < 500 |  |
| CC(C)(C)OC(=O)N1CCC[C@H](OC(=O)NS(=O)(=O)c2ccc3c(c2)N(CC2CCC2)CC2(CCCc4cc(Cl)ccc42)CO3)C1 (stereo partly drawn) [Example 23, tert-Butyl (3S)-3-[[6′-chloro-5-(cyclobutylmethyl)spiro[2,4-dihydro-1,5-benzoxazepine-3,1′-tetralin]-7-yl]sulfonylcarbamoyloxy]piperidine-1-carboxylate] |  | > 1000 | 73.6 |
| CO[C@@H]1/C=C\CN(C)[C@H](C)C(=O)NS(=O)(=O)c2ccc3c(c2)N(C[C@@H]2CC[C@H]21)C[C@@]1(CCCc2cc(Cl)ccc21)CO3 [Example 124, (3R,6R,7R,8Z,12R,22S)-6′-Chloro-7-methoxy-11,12-dimethyl-15,15-dioxo-spiro[20-oxa-15-thia-1,11,14-triazatetracyclo[14.7.2.03,6.019,24]pentacosa-8,16(25),17,19(24)-tetraene-22,1′-tetralin]-13-one] | 1 to 100 | < 1000 |  |

Source: patent publication US11130769B2 (Prelude Therapeutics Incorporated, priority 2018, dated 2021)
